Experimental data from US7666877B2, “Ergoline derivatives” (priority 2005, dated 2010).

Tests used:
CXCR3 [1] = molecular target: T1, CXCR3 (Homo sapiens, UniProt P49682); assay: cell-based; set-up: expressed in transfected cells; host or cells: L1.2 cells (mouse pre-B cell line)
T1 sequence (P49682 1-368): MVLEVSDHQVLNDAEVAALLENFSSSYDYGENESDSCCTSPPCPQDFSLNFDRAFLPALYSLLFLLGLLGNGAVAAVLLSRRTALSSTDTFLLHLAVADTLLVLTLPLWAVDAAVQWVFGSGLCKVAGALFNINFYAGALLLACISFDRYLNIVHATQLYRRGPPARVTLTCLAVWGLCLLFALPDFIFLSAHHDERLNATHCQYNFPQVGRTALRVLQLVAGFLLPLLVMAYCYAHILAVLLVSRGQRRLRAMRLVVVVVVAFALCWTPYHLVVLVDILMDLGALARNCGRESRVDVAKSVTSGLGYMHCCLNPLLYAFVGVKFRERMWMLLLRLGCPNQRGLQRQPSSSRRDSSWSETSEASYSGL
Procedure: b) CXCR3 Functional Assay—Ca^2+ Mobilization
CXCR3 ligand-induced Ca^2+ mobilization is assessed in CXCR3 transfected L1.2 cells (a mouse pre B cell line). For this, cells are loaded with the Ca^2+-sensitive fluorochrome Fluo-4 (Molecular Probes). After washing, the cells are pre-incubated with low molecular weight inhibitors for 2 h at room temperature. The transient increase in intracellular Ca^2+ after the addition of the CXCR3 ligand (e.g. I-TAC) is monitored in a fluorescence image plate reader (FLIPR) instrument. The inhibition of CXCR3 ligand induced Ca^2+ mobilization in the presence of CXCR3 antagonists is reported as IC50 values i.e. the concentration of compound which reduces the maximal Ca^2+ response to 50%.

CXCR3 [2] = molecular target: T1, CXCR3; assay: biochemical; type: binding; set-up: expressed in transfected cells; host or cells: CHO cells (membrane preparation)
Procedure: a) CXCR3 Membrane Binding Assay
A ligand binding assay is used to identify inhibitors of I-TAC binding to CXCR3 expressing membranes. Cell membranes are prepared from CHO cells transfected with human CXCR3. The binding of the ^125I labeled CXCR3 ligand e.g. I-TAC (CXCL11) to CXCR3 is assessed using the Scintillation Proximity Assay (SPA) technology (Amersham Pharmacia Biotech). Buffer or serial dilutions of compound are incubated for 2 hours at room temperature with labeled CXCR3 ligand (e.g. I-TAC), CXCR3 expressing membranes and WGA coated PVT beads. The plates are then centrifuged and counted in a Topcount (Packard) instrument. The data are reported as the concentration of compound required to achieve 50% inhibition of ^125I ligand binding.

CXCR3 [3] = molecular target: T1, CXCR3; assay: CXCR3 functional assay - chemotaxis; type: cell-based; set-up: expressed in transfected cells; host or cells: L1.2 cells (mouse pre-B cell line); details: CXCR3 transfected L-1.2 cells; I-TAC; 4 h at 37° C.; read-out: IC50, concentration which leads to a reduction of migrated cells by 50%
Procedure: c) CXCR3 Functional Assay—Chemotaxis
The directed cell migration induced by CXCR3 ligands e.g. I-TAC is assessed using 96-well disposable chemotaxis chambers (Multiscreen MIC, Costar) with polycarbonate membranes containing pores of 5 μm diameter. Chemokine (e.g. I-TAC) is placed in the bottom well of the chamber and cells (e.g. CXCR3 transfected L-1.2 cells) are placed in the top compartment of the chemotaxis chamber. Cell migration across the porous membrane is allowed for 4 h at 37° C. Cells migrated from the top compartment to the bottom compartment are quantified by flow cytometry. When LMW inhibitors are tested, compounds are added to both compartments at the identical concentrations; Serial dilutions of compounds are tested to assess their inhibitory effect on CXCR3 dependent cell migration. The concentration of LMW CXCR3 inhibitors which leads to a reduction of migrated cells by 50% is reported as IC50. In this assay, the compounds of formula I have an IC50 value from 1 μM-1 nM.

[4] = CXCR3 transfected L1.2 cells (mouse pre B cell line), CXCR3 ligand (e.g. I-TAC), pre-incubation 2 h at room temperature, read-out: IC50, concentration of compound which reduces the maximal Ca2+ response to 50%
[5] = membranes of CHO cells transfected with human CXCR3, 125I I-TAC (CXCL11), 2 hours at room temperature, read-out: IC50, concentration of compound required to achieve 50% inhibition of 125I ligand binding

O=C([C@@H]1C=C2c3cccc4[nH]cc(c34)C[C@H]2N(C(=O)Nc2ccccc2)C1)N1CCC1 [Example 23]
IC50 (CXCR3 [1]; [4]): 8 nM | IC50 (CXCR3 [2]; [5]): 61 nM

O=C([C@@H]1C=C2c3cccc4[nH]cc(c34)C[C@H]2N(C(=O)Nc2ccccc2F)C1)N1CCCC1 [Example 59]
IC50 (CXCR3 [1]; [4]): 20 nM | IC50 (CXCR3 [2]; [5]): 43 nM

CC(C)OC(=O)Cn1cc2c3c(cccc31)C1=C[C@@H](C(=O)N3CCCC3)CN(C(=O)Nc3ccccc3)[C@@H]1C2 [Example 79, [(6aR,9R)-7-Phenylcarbamoyl-9-(pyrrolidine-1-carbonyl)-6a,7,8,9-tetrahydro-6H-indolo[4,3-fg]quinolin-4-yl]-acetic acid isopropyl ester]
IC50 (CXCR3 [1]): 53 nM | IC50 (CXCR3 [2]): 145 nM

O=C([C@@H]1C=C2c3cccc4[nH]cc(c34)C[C@H]2N(C(=O)Nc2ccccc2)C1)N1CCOCC1 [Example 43]
IC50 (CXCR3 [3]): 75 nM | IC50 (CXCR3 [1]): 16 nM | IC50 (CXCR3 [2]): 23 nM
